In the NIST ThermoML archive (doi:10.1021/je050402s):

Test: xn = mol fraction of the nth substance listed
Conditions: 100.5 kPa, Liquid; for viscosity: Capillary tube (Ostwald / Ubbelohde) method

CCOC(=O)CC(C)=O [ethyl 3-oxobutanoate] + CCO
Conditions | mass density, 308.15 K [kg/m3] | mass density, 318.15 K [kg/m3] | viscosity, 308.15 K [mPa·s] | viscosity, 318.15 K [mPa·s]
x1 = 0.05 | 800.94 | 791.8 | 0.869 | 0.731
x1 = 0.1 | 822.68 | 813.32 | 0.841 | 0.713
x1 = 0.15 | 842.22 | 832.67 | 0.832 | 0.709
x1 = 0.2 | 859.89 | 850.17 | 0.837 | 0.712
x1 = 0.25 | 875.91 | 866.05 | 0.846 | 0.721
x1 = 0.3 | 890.57 | 880.6 | 0.86 | 0.735
x1 = 0.35 | 903.99 | 893.92 | 0.878 | 0.751
x1 = 0.4 | 916.34 | 906.18 | 0.898 | 0.768
x1 = 0.45 | 927.73 | 917.49 | 0.921 | 0.789
x1 = 0.5 | 938.29 | 927.99 | 0.947 | 0.812
x1 = 0.55 | 948.11 | 937.75 | 0.974 | 0.836
x1 = 0.6 | 957.24 | 946.84 | 1.004 | 0.861
x1 = 0.65 | 965.77 | 955.36 | 1.036 | 0.888
x1 = 0.7 | 973.79 | 963.33 | 1.073 | 0.917
x1 = 0.75 | 981.29 | 970.82 | 1.112 | 0.948
x1 = 0.8 | 988.36 | 977.88 | 1.154 | 0.983
x1 = 0.85 | 995.02 | 984.54 | 1.199 | 1.018
x1 = 0.9 | 1001.3 | 990.84 | 1.247 | 1.059
x1 = 0.95 | 1007.29 | 996.82 | 1.295 | 1.103
x1 = 1 | 1013 | 1002.54 | 1.344 | 1.144
